The test concerns the target T1, Human renin (Homo sapiens, UniProt P00797).
T1 construct: thus to obtain 1.5 mg of a purified product of active type renin (67-406); made in house; host or cells: FreeStyle 293-F cells (transient expression of pcDNA3.1(+)/hREN)
T1 sequence (P00797 67-406): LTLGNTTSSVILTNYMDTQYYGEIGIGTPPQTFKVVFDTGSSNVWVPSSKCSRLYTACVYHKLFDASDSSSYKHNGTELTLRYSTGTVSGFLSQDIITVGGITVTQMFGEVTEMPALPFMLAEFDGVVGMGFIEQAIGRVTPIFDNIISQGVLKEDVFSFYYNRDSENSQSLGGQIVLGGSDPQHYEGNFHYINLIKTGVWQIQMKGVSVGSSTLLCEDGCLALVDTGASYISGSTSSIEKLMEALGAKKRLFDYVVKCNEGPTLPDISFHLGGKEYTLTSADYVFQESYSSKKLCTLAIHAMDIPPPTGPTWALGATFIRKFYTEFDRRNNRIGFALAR
Nature of the test: Measurement of renin inhibition value A (FITC-labelled substrate peptide, capillary electrophoresis). Format: biochemical. The note with it: test compound 1 μM, renin 4.7 nM, pH 6.0, 37° C., 30 min, read-out: inhibitory activity (%) at 1 μM. The method, then:
Human renin was obtained by expressing preprorenin (1-406) in an animal cell, treating the prorenin (24-406) contained in the culture supernatant with trypsin, and taking the active type (67-406).
To 3.6 mg of prorenin (24-406) dissolved in 5.2 ml of 0.1 M Tris-hydrochloric acid (pH 8.0), 12 μg of trypsin (Roche Diagnostics Corp.) was added, and the mixture was allowed to react at 28° C. for 55 min to carry out activation of renin. After the reaction, 0.4 ml of immobilized trypsin inhibitor (Pierce Biotechnology, Inc.) was added to remove the trypsin used in the activation by adsorption. The reaction liquid containing the active type renin was concentrated using Vivaspin 20 (molecular weight cut off 10,000, Vivascience, Inc.), and was diluted with 20 mM Tris-hydrochloric acid (pH 8.0). The diluted liquid was fed to a TSKgel DEAE-5PW column (7.5 mm I.D.×75 mm, Tosoh Corp.) equilibrated with 20 mM Tris-hydrochloric acid (pH 8.0) at a flow rate of 1 ml/min to adsorb the active type renin (67-406). The column was washed with the buffer solution used for the equilibration, and then elution was carried out by means of a sodium chloride linear concentration gradient from 0 M to 0.3 M, thus to obtain 1.5 mg of a purified product of active type renin (67-406).
As a substrate for renin activity measurement, a substrate peptide (FITC-Acp-Asp-Arg-Val-Tyr-Ile-His-Pro-Phe-His-Leu-Val-Ile-His-Gln-Arg-NH2; SEQ ID No.8) wherein the N-terminal of a peptide prepared in reference to a partial sequence (Asp-Arg-Val-Tyr-Ile-His-Pro-Phe-His-Leu-Val-Ile-His-Asn-Glu-NH2; SEQ ID No.7) of human angiotensinogen was bound with epsilon aminocaproic acid (Acp) as a linker and labeled with a fluorescence reagent Fluorescein isothiocyanate (FITC). 2 μl each of the test compound (containing 100% DMSO) was added to each well of a 384-well black plate (Nalge Nunc International Co., Ltd.). Renin was diluted with a buffer solution for reaction (20 mM citric acid-sodium citrate (pH 6.0)) to a concentration of 4.7 nM, and 30 μl each of the dilution was added to each well. The dilution was left to stand at 37° C. for 10 min, and then 8 μl of each of a 25 μM solution of substrate peptide was added to each well to initiate the reaction. The reaction mixture was left to stand at 37° C. for 30 min, and then 40 μl each of a reaction terminating solution [200 mM Tris-hydrochloric acid (pH 8.0), 0.04% Triton-X 100, 0.4% Coating 3 reagent (Caliper Life Sciences Corp.) and 1 μM CGP-29287 (Bachem Holding AG)] was added to each well to terminate the reaction.
The substrate peptide and the product peptide were separated by a microchip type capillary electrophoresis system 250HTS (Caliper Life Sciences Co., Ltd.), and the rate of reaction [(peak height of product)/(peak height of product+peak height of substrate)×100(%)] was calculated from the ratio of the respective peak height of the peptides obtained by fluorimetric detection (excitation wavelength 457 nm, measurement wavelength 530 nm), and was used as an index of the renin activity.
While the reaction rate of the well where 100% DMSO only was added was taken as 0% inhibition rate, and the reaction rate of the well where 10 μM of CGP-29287 was added was taken as 100% inhibition rate, the renin inhibitory activity of the wells where the test compound (containing 100% DMSO) was added was calculated.

Where a name gives a salt, the structure may show the parent alone.

This passage reports inhibition results from patent US20090227560A1, “Substituted imidazole compound and use thereof” (priority 2007, published 2009).

As to `O=C(c1ncn([C@H]2CCCC[C@H]2O)c1-c1ccccc1)N1CCNC[C@H]1Cc1cc(F)cc(F)c1` [Example 1, (1R,2S)-2-(4-{[(2R)-2-(3,5-Difluorobenzyl)piperazin-1-yl]carbonyl}-5-phenyl-1H-imidazol-1-yl)cyclohexanol hydrochloride], the inhibition at 1 µM was found to be 96%.

Regarding `O=C(c1ncn(CC2(O)CCCCC2)c1-c1ccccc1)N1CCNC[C@H]1Cc1ccccc1` [Example 4, 1-[(4-{[(2R)-2-Benzylpiperazin-1-yl]carbonyl}-5-phenyl-1H-imidazol-1-yl)methyl]cyclohexanol], the inhibition at 1 µM is 99%.

For `COC(=O)N[C@H]1CCCC[C@@H]1n1cnc(C(=O)N2CCNC[C@H]2Cc2ccccc2)c1-c1ccccc1` [Example 6, Methyl [(1S,2S)-2-(4-{[(2R)-2-benzylpiperazin-1-yl]carbonyl}-5-phenyl-1H-imidazol-1-yl)cyclohexyl]carbamate], the inhibition at 1 µM turned out to be 98%.

Consider `O=C(c1ncn(C2CCCCC[C@@H]2O)c1-c1ccccc1)N1CCNC[C@H]1Cc1ccccc1` (stereo partly drawn) [Example 7, trans-2-(4-{[(2R)-2-Benzylpiperazin-1-yl]carbonyl}-5-phenyl-1H-imidazol-1-yl)cycloheptanol], for which the inhibition at 1 µM is 100%.

`COC[C@]1(O)CCCC[C@H]1n1cnc(C(=O)N2CCNC[C@H]2CCOc2ccc(C(=O)OC)cc2)c1-c1ccccc1` [Example 15, Methyl 4-{2-[(2R)-1-({1-[(1R,2S)-2-hydroxy-2-(methoxymethyl)cyclohexyl]-5-phenyl-1H-imidazol-4-yl}carbonyl)piperazin-2-yl]ethoxy}benzoate]: the inhibition at 1 µM was found to be 96%.

In the case of `O=C(c1ncn(C2CCCCC2)c1-c1ccccc1)N1CCNC[C@H]1Cc1ccccc1` [Example 349, (2R)-2-Benzyl-1-[(1-cyclohexyl-5-phenyl-1H-imidazol-4-yl)carbonyl]piperazine], the inhibition at 1 µM turned out to be 101%.

With `O=C(c1ncn([C@H]2CCCC[C@H]2O)c1-c1ccccc1)N1CCNC[C@H]1Cc1ccccc1` [Example 352, (1R,2S)-2-(4-{[(2R)-2-Benzylpiperazin-1-yl]carbonyl}-5-phenyl-1H-imidazol-1-yl)cyclohexanol], the inhibition at 1 µM turned out to be 101%.

Turning to `CCOC(=O)N[C@H]1CCCC[C@@H]1n1cnc(C(=O)N2CCNC[C@H]2Cc2ccccc2)c1-c1ccccc1` [Example 357, Ethyl [(1S,2S)-2-(4-{[(2R)-2-benzylpiperazin-1-yl]carbonyl}-5-phenyl-1H-imidazol-1-yl)cyclohexyl]carbamate], the inhibition at 1 µM is 100%.

On to `CCOC(=O)N[C@H]1CCCC[C@@H]1n1cnc(C(=O)N2CCNC[C@H]2Cc2cc(F)cc(F)c2)c1-c1ccccc1` [Example 358, Ethyl [(1S,2S)-2-(4-{[(2R)-2-(3,5-difluorobenzyl)piperazin-1-yl]carbonyl}-5-phenyl-1H-imidazol-1-yl)cyclohexyl]carbamate], for which the inhibition at 1 µM came to 103%.

Take `CCCCC1(O)CCCCC1n1cnc(C(=O)N2CCNC[C@H]2Cc2ccccc2)c1-c1ccccc1` (stereo partly drawn) [Example 360, 2-(4-{[(2R)-2-Benzylpiperazin-1-yl]carbonyl}-5-phenyl-1H-imidazol-1-yl)-1-butylcyclohexanol hydrochloride]: the inhibition at 1 µM was 99%.

As to `CCOCC1(O)CCCCC1n1cnc(C(=O)N2CCNC[C@H]2Cc2ccccc2)c1-c1ccccc1` (stereo partly drawn) [Example 361, 2-(4-{[(2R)-2-Benzylpiperazin-1-yl]carbonyl}-5-phenyl-1H-imidazol-1-yl)-1-(ethoxymethyl)cyclohexanol], the inhibition at 1 µM was found to be 100%.

Turning to `O=C(c1ncn([C@@H]2CCCC[C@@]2(O)CC2CC2)c1-c1ccccc1)N1CCNC[C@H]1Cc1ccccc1` [Example 363, (1R,2R)-2-(4-{[(2R)-2-Benzylpiperazin-1-yl]carbonyl}-5-phenyl-1H-imidazol-1-yl)-1-(cyclopropylmethyl)cyclohexanol hydrochloride], the inhibition at 1 µM came out at 98%.

Consider `COC[C@]1(O)CCCC[C@H]1n1cnc(C(=O)N2CCNC[C@H]2Cc2ccccc2)c1-c1ccccc1` [Example 367, (1S,2R)-2-(4-{[(2R)-2-Benzylpiperazin-1-yl]carbonyl}-5-phenyl-1H-imidazol-1-yl)-1-(methoxymethyl)cyclohexanol dihydrochloride], for which the inhibition at 1 µM came to 99%.

Turning to `CSCCCOC[C@@]1(O)CCCC[C@@H]1n1cnc(C(=O)N2CCNC[C@H]2Cc2ccccc2)c1-c1ccccc1` [Example 378, (1R,2S)-2-(4-{[(2R)-2-Benzylpiperazin-1-yl]carbonyl}-5-phenyl-1H-imidazol-1-yl)-1-{[3-(methylthio)propoxy]methyl}cyclohexanol], the inhibition at 1 µM stood at 99%.

On to `COC[C@]1(O)CCCC[C@H]1n1cnc(C(=O)N2CCNC[C@H]2Cc2cc(F)cc(F)c2)c1-c1ccccc1` [Example 379, (1S,2R)-2-(4-{[(2R)-2-(3,5-Difluorobenzyl)piperazin-1-yl]carbonyl}-5-phenyl-1H-imidazol-1-yl)-1-(methoxymethyl)cyclohexanol hydrochloride], for which the inhibition at 1 µM came to 99%.

`COC[C@]1(O)CCCC[C@H]1n1cnc(C(=O)N2CCNC[C@H]2Cc2cccnc2)c1-c1ccccc1` [Example 380, (1S,2R)-1-(Methoxymethyl)-2-(5-phenyl-4-{[(2R)-2-(pyridin-3-ylmethyl)piperazin-1-yl]carbonyl}-1H-imidazol-1-yl)cyclohexanol dihydrochloride]: the inhibition at 1 µM amounted to 100%.

As for `COC[C@]1(O)CCCC[C@H]1n1cnc(C(=O)N2CCNC[C@H]2Cc2ccccc2)c1-c1cccc(F)c1` [Example 383, (1S,2R)-2-[4-{[(2R)-2-Benzylpiperazin-1-yl]carbonyl}-5-(3-fluorophenyl)-1H-imidazol-1-yl]-1-(methoxymethyl)cyclohexanol], the inhibition at 1 µM stood at 100%.

For the compound `COC[C@]1(O)CCCC[C@H]1n1cnc(C(=O)N2CCNC[C@H]2CCOc2ccccc2)c1-c1ccccc1` [Example 387, (1S,2R)-1-(Methoxymethyl)-2-(4-{[(2R)-2-(2-phenoxyethyl)piperazin-1-yl]carbonyl}-5-phenyl-1H-imidazol-1-yl)cyclohexanol dihydrochloride], the inhibition at 1 µM is 109%.

For the compound `COC[C@]1(O)CCCC[C@H]1n1cnc(C(=O)N2CCNC[C@H]2CCOc2ccccc2F)c1-c1ccccc1` [Example 389, (1S,2R)-2-[4-({(2R)-2-[2-(2-Fluorophenoxy)ethyl]piperazin-1-yl}carbonyl)-5-phenyl-1H-imidazol-1-yl]-1-(methoxymethyl)cyclohexanol], the inhibition at 1 µM came to 106%.

Consider `COC[C@]1(O)CCCC[C@H]1n1cnc(C(=O)N2CCNC[C@H]2CCOc2ccc(C(=O)NC3CC3)cc2)c1-c1ccccc1` [Example 390, N-Cyclopropyl-4-{2-[(2R)-1-({1-[(1R,2S)-2-hydroxy-2-(methoxymethyl)cyclohexyl]-5-phenyl-1H-imidazol-4-yl}carbonyl)piperazin-2-yl]ethoxy}benzamide], for which the inhibition at 1 µM turned out to be 105%.

With `COC[C@]1(O)CCCC[C@H]1n1cnc(C(=O)N2CCNC[C@H]2CCn2ncc3ccccc32)c1-c1ccccc1` [Example 391, (1S,2R)-2-[4-({(2R)-2-[2-(1H-Indazol-1-yl)ethyl]piperazin-1-yl}carbonyl)-5-phenyl-1H-imidazol-1-yl]-1-(methoxymethyl)cyclohexanol], the inhibition at 1 µM was determined as 109%.
